Measured values published in US20180355441A1, “VISUAL DETECTION OF PLATINATED DNA LESIONS FROM A CLICKABLE CISPLATIN PROBE USED AS DIAGNOSTIC TOOL OR TO IDENTIFY SYNERGISTIC TREATMENTS” (CENTRE NATIONAL DE LA RECHERCHE SCIENTIFIQUE, priority 2015, published 2018).

Tests used:
DNA-Pt in U2OS cells = assay: Screen of small molecule modulators of genome targeting using ACP staining as readout; type: cell-based, human; settings: U2OS cells co-treated with small molecule and ACP, confocal microscopy
Procedure: Labeled DNA-Pt were analyzed by confocal microscopy.
[…], ACP, APPOA and CP were prepared in the laboratory as described in the synthesis section of the methods. Suberoylanilide hydroxamic acid (SAHA) was purchased from Sigma and cisplatin was purchased from Tocris.
Data were analyzed with ImagaJ.

histone H4 = assay: Western blot of histone H4 acetylation; type: cell-based, human; settings: U2OS cells
Procedure: Cells were washed once with PBS and lysed in lysis buffer (50 mM Tris-HCl, pH 7.5, 150 mM NaCl, 1 mM EDTA, 1% Triton X-100). For Western blot, samples were briefly sonicated followed by boiling in SDS sample buffer and separated by SDS-PAGE gels. Proteins were transferred to nitrocellulose membrane (GE Healthcare) and western blotting was performed following standard protocols. Western blots were detected by chemiluminescence (GE Healthcare Amersham ECL prime) using a Bio-Rad Molecular Imager ChemiDoc XRS+ system. The primary antibodies used for western blotting: H2AX (Millipore; #07-627), γH2AX [pSer139] (Novus Biologicals; NB100-384), histone H4 (Abcam; ab7311), acetyl-histone H4 (Lys16) (Cell Signaling; #8804), acetyl-histone H4 (Millipore; #06-866), PCNA (Santa Cruz Biotech; PC10), RAD18 (Cell Signaling; #21000), PARP (Cell Signaling; #9542), β-tubulin (Abcam; ab6046). Secondary antibodies used were: anti-rabbit IgG, HRP-linked (Cell Signaling; #7074), anti-mouse IgG, HRP-linked (Cell Signaling; #7076).

U2OS cells = assay: Cell viability assay (CellTiter-Blue), anti-proliferative activity; type: cell-based, human; settings: 72 h treatment
Procedure: Cell viability assays were carried out by plating U2OS cells (2,000 cells per well) in 96-well plates.

[1] = test system: genomic DNA from U2OS cells; settings: compared to equal amounts of DNA collected from CP-treated cells; 3 h treatment
Text: Samples were air dried and visualized using a Bio-Rad Molecular Imager ChemiDoc XRS+ system.

[2] = test system: 26-mer hairpin-forming DNA oligonucleotide containing a single 1,2-GG dinucleotide; settings: 37° C., 18 h
Procedure: The reaction of hp with ACP was performed at 37° C. for 18 h. Unbound ACP and salts were removed using a Sephadex G-25 Medium size exclusion resin (GE Healthcare) on laboratory prepared spin columns (BioRad).

Compound | Effect on ACP staining (DNA-Pt) by visual inspection (DNA-Pt in U2OS cells) | Histone H4 acetylation (histone H4) | Anti-proliferative activity against U2OS cells (U2OS cells) | Fluorescence of labeled genomic DNA (dot blot) [1] | Reactivity towards DNA and labeling by alkyne-containing tag in vitro [2]
O=C(CCCCCCC(=O)Nc1ccccc1)NO [SAHA, Suberoylanilide hydroxamic acid] | led to the occurrence of foci of DNA-Pt | induced histone hyperacetylation of histone H4 |  |  | 
N.N.[Cl][Pt][Cl] [cisplatin] |  |  | exhibited anti-proliferative properties |  | 
Nc1ncn([C@@H]2O[C@H](CO)[C@@H](O)[C@H]2O)c(=O)n1 [Compound 5-Aza, 5-Azacytidine] | led to the occurrence of foci of DNA-Pt |  |  |  | 
2-aminomethylpyridine(dichloro)platinum(II) azide [ACP] |  |  | exhibited anti-proliferative properties | higher level of fluorescence | can chemoselectively cross react with DNA and be labeled by an alkyne-containing tag
